Laboratory results taken from ChEMBL document CHEMBL5241112, “Insights into the recent progress in the medicinal chemistry of pyranopyrimidine analogs” (RSC Med Chem, 2022).
In brackets after ≈: the same amount, converted by molar mass. Each block holds one compound with its values, some of them ahead of it.

Tests used:
Micrococcus luteus [1] = experiment: Antibacterial activity against Micrococcus luteus MTCC 2470 assessed as bacterial growth inhibition incubated for 24 hrs by broth microdilution method; assay type: functional
Micrococcus luteus [2] = experiment: Antibacterial activity against Micrococcus luteus MTCC 2470 assessed as minimum bactericidal concentration incubated for 24 hrs by broth microdilution method; assay type: functional
Micrococcus luteus [3] = experiment: Antibiofilm activity against Micrococcus luteus MTCC 2470 assessed as inhibition of biofilm incubated for 24 hrs by crystal violet staining based spectrophotometry; assay type: functional, organism-based; settings: MTCC 2470, 24 h
Staphylococcus aureus [4] = experiment: Antibacterial activity against Staphylococcus aureus MTCC 96 assessed as bacterial growth inhibition incubated for 24 hrs by broth microdilution method; assay type: functional
Staphylococcus aureus [5] = experiment: Antibacterial activity against Staphylococcus aureus MTCC 96 assessed as minimum bactericidal concentration incubated for 24 hrs by broth microdilution method; assay type: functional
Staphylococcus aureus [6] = experiment: Antibiofilm activity against Staphylococcus aureus MTCC 96 assessed as inhibition of biofilm incubated for 24 hrs by crystal violet staining based spectrophotometry; assay type: functional, organism-based; settings: MTCC 96, 24 h
Staphylococcus aureus [7] = experiment: Antibacterial activity against Staphylococcus aureus MLS-16 MTCC 2940 assessed as bacterial growth inhibition incubated for 24 hrs by broth microdilution method; assay type: functional
Staphylococcus aureus [8] = experiment: Antibacterial activity against Staphylococcus aureus MLS-16 MTCC 2940 assessed as minimum bactericidal concentration incubated for 24 hrs by broth microdilution method; assay type: functional
Staphylococcus aureus [9] = experiment: Antibiofilm activity against Staphylococcus aureus MLS-16 MTCC 2940 assessed as inhibition of biofilm incubated for 24 hrs by crystal violet staining based spectrophotometry; assay type: functional, organism-based; settings: MLS-16 MTCC 2940, 24 h
Bacillus subtilis [10] = experiment: Antibacterial activity against Bacillus subtilis MTCC 121 assessed as bacterial growth inhibition incubated for 24 hrs by broth microdilution method; assay type: functional
Bacillus subtilis [11] = experiment: Antibacterial activity against Bacillus subtilis MTCC 121 assessed as minimum bactericidal concentration incubated for 24 hrs by broth microdilution method; assay type: functional
Bacillus subtilis [12] = experiment: Antibiofilm activity against Bacillus subtilis MTCC 121 assessed as inhibition of biofilm incubated for 24 hrs by crystal violet staining based spectrophotometry; assay type: functional, organism-based; settings: MTCC 121, 24 h
Escherichia coli [13] = experiment: Antibacterial activity against Escherichia coli MTCC 739 assessed as bacterial growth inhibition incubated for 24 hrs by broth microdilution method; assay type: functional
Escherichia coli [14] = experiment: Antibacterial activity against Escherichia coli MTCC 739 assessed as minimum bactericidal concentration incubated for 24 hrs by broth microdilution method; assay type: functional
Escherichia coli [15] = experiment: Antibiofilm activity against Escherichia coli MTCC 739 assessed as inhibition of biofilm incubated for 24 hrs by crystal violet staining based spectrophotometry; assay type: functional, organism-based; settings: MTCC 739, 24 h
Raoultella planticola [16] = experiment: Antibacterial activity against Raoultella planticola MTCC 530 assessed as bacterial growth inhibition incubated for 24 hrs by broth microdilution method; assay type: functional; settings: Klebsiella planticola
Raoultella planticola [17] = experiment: Antibacterial activity against Raoultella planticola MTCC 530 assessed as minimum bactericidal concentration incubated for 24 hrs by broth microdilution method; assay type: functional; settings: Klebsiella planticola
Raoultella planticola [18] = experiment: Antibiofilm activity against Raoultella planticola MTCC 530 assessed as inhibition of biofilm incubated for 24 hrs by crystal violet staining based spectrophotometry; assay type: functional, organism-based; settings: Klebsiella planticola, MTCC 530, 24 h
Candida albicans [19] = experiment: Antifungal activity against Candida albicans MTCC 183 assessed as inhibition of fungal growth incubated for 24 hrs by agar well diffusion method; assay type: functional
Candida albicans [20] = experiment: Antifungal activity against Candida albicans MTCC 227 assessed as inhibition of fungal growth incubated for 24 hrs by agar well diffusion method; assay type: functional
Candida albicans [21] = experiment: Antifungal activity against Candida albicans MTCC 854 assessed as inhibition of fungal growth incubated for 24 hrs by agar well diffusion method; assay type: functional
Candida albicans [22] = experiment: Antifungal activity against Candida albicans MTCC 1637 assessed as inhibition of fungal growth incubated for 24 hrs by agar well diffusion method; assay type: functional
Candida parapsilosis = experiment: Antifungal activity against Candida parapsilosis MTCC 1744 assessed as inhibition of fungal growth incubated for 24 hrs by agar well diffusion method; assay type: functional; settings: Lodderomyces parapsilosis
Nakaseomyces glabratus = experiment: Antifungal activity against Candida glabrata MTCC 3019 assessed as inhibition of fungal growth incubated for 24 hrs by agar well diffusion method; assay type: functional
Pichia kudriavzevii = experiment: Antifungal activity against Candida krusei MTCC 3020 assessed as inhibition of fungal growth incubated for 24 hrs by agar well diffusion method; assay type: functional
Pichia sporocuriosa = experiment: Antifungal activity against Pichia sporocuriosa MTCC 4755 assessed as inhibition of fungal growth incubated for 24 hrs by agar well diffusion method; assay type: functional
[23] = molecular target: NAD-dependent protein deacetylase sirtuin-1 (Homo sapiens, UniProt Q96EB6); experiment: Inhibition of recombinant human SIRT1 expressed in Escherichia coli using Fluor de Lys-SIRT1/2 substrate in presence of NAD+ by fluorescence microplate reader analysis
Sequence of NAD-dependent protein deacetylase sirtuin-1 (Q96EB6 whole entry): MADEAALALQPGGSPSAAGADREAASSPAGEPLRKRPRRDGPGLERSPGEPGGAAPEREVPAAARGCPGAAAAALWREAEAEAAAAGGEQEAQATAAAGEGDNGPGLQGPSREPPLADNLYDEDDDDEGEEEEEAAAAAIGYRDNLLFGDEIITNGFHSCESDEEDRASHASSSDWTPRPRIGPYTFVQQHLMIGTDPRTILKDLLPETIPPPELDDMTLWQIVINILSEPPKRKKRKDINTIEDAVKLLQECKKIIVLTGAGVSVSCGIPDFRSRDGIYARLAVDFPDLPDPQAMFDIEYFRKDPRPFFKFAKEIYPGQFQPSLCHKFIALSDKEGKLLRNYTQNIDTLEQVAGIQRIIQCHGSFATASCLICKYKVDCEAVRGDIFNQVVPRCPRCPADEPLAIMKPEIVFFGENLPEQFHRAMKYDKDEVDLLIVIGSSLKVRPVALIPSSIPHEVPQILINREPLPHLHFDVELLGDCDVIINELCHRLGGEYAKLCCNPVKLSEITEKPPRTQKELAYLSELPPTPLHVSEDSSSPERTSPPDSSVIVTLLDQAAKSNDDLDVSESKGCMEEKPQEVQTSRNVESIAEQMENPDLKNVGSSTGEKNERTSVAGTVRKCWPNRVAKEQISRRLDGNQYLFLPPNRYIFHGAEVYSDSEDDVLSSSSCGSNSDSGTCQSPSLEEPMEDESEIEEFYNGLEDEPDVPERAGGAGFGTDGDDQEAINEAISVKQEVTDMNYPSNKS

NUGC = experiment: Anticancer activity against human NUGC cells assessed as cell growth inhibition incubated for 24 hrs; assay type: functional, cell-based
DLD-1 = experiment: Anticancer activity against human DLD-1 cells assessed as cell growth inhibition incubated for 24 hrs; assay type: functional, cell-based; settings: DLD-1, 24 h
HA22T cell line = experiment: Anticancer activity against human HA22T cells assessed as cell growth inhibition incubated for 24 hrs; assay type: functional, cell-based
HepG2 [24] = experiment: Anticancer activity against human HepG2 cells assessed as cell growth inhibition incubated for 24 hrs; assay type: functional, cell-based; settings: HepG2, 24 h
HONE1 cell line = experiment: Anticancer activity against human HONE1 cell line assessed as cell growth inhibition incubated for 24 hrs; assay type: functional, cell-based; settings: HONE1, 24 h
MCF7 = experiment: Anticancer activity against human MCF7 cells assessed as cell growth inhibition incubated for 24 hrs; assay type: functional, cell-based; settings: MCF7, 24 h
A549 = experiment: Anticancer activity against human A549 cells assessed as reduction in cell viability incubated for 24 hrs by MTT assay; assay type: functional, cell-based; settings: A549, 24 h
HepG2 [25] = experiment: Anticancer activity against human HepG2 cells assessed as reduction in cell viability incubated for 24 hrs by MTT assay; assay type: functional, cell-based; settings: HepG2, 24 h
[26] = Cytotoxicity against human WI-38 cells assessed as cell growth inhibition incubated for 24 hrs; assay type: toxicity, cell-based
WI-38 = experiment: Cytotoxicity against human WI-38 cells assessed as lethality incubated for 24 hrs; assay type: toxicity, cell-based; settings: wi-38, 24 h

Compound: O=C1N=C2Oc3ccccc3CC2C(=O)N1c1ccccc1 (configuration not stated)
- IC50 [23]: 4200 nM

Compound: N#CC1=C(N)C2C(=NC(NN)=NC2c2ccc(Cl)cc2)OC1=O (configuration not stated)
- IC50 (NUGC): 328 nM
- IC50 (DLD-1): 606 nM
- IC50 (HA22T cell line): 282 nM
- IC50 (HepG2 [24]): 263 nM
- IC50 (HONE1 cell line): 201 nM
- IC50 (MCF7): 348 nM

Compound: N#CC1=C(N)C2C(=NC(NNc3ccccc3)=NC2c2ccc(Cl)cc2)OC1=O (configuration not stated)
- IC50 (NUGC): 55 nM
- IC50 (DLD-1): 146 nM
- IC50 (HepG2 [24]): 523 nM
- IC50 (HONE1 cell line): 536 nM
- IC50 (MCF7): 285 nM
- IC50 at 24 h [26]: 222 nM
- LC50 (WI-38): 18.38 µg/mL (≈ 45.2 µM)

Continued, in another order:

- MIC (Micrococcus luteus [1]): 15.6 µg/mL (≈ 35.2 µM)
- IC50 (Micrococcus luteus [3]): 2500 nM
- MIC (Staphylococcus aureus [4]): 15.6 µg/mL (≈ 35.2 µM)
- IC50 (Staphylococcus aureus [6]): 2500 nM
- MIC (Staphylococcus aureus [7]): 15.6 µg/mL (≈ 35.2 µM)
- IC50 (Staphylococcus aureus [9]): 2500 nM
- MIC (Bacillus subtilis [10]): 7.8 µg/mL (≈ 17.6 µM)
- IC50 (Bacillus subtilis [12]): 2500 nM
- MIC (Escherichia coli [13]): 7.8 µg/mL (≈ 17.6 µM)
- IC50 (Escherichia coli [15]): 2500 nM
- MIC (Candida albicans [19]): 7.8 µg/mL (≈ 17.6 µM)
- MIC (Candida albicans [20]): 7.8 µg/mL (≈ 17.6 µM)
- MIC (Candida albicans [21]): 7.8 µg/mL (≈ 17.6 µM)
- MIC (Candida albicans [22]): 7.8 µg/mL (≈ 17.6 µM)
- MIC (Candida parapsilosis): 7.8 µg/mL (≈ 17.6 µM)
- MIC (Nakaseomyces glabratus): 7.8 µg/mL (≈ 17.6 µM)
- MIC (Pichia kudriavzevii): 7.8 µg/mL (≈ 17.6 µM)
- MIC (Pichia sporocuriosa): 7.8 µg/mL (≈ 17.6 µM)
Compound: COc1ccc(Nc2ncnc3c2C(c2ccc(OC)cc2)c2c(cc(C)oc2=O)O3)cc1 (configuration not stated)
- MBC (Micrococcus luteus [2]): 7.8 µg/mL (≈ 17.6 µM)
- MBC (Staphylococcus aureus [5]): 7.8 µg/mL (≈ 17.6 µM)
- MBC (Staphylococcus aureus [8]): 7.8 µg/mL (≈ 17.6 µM)
- MBC (Bacillus subtilis [11]): 7.8 µg/mL (≈ 17.6 µM)
- MBC (Escherichia coli [14]): 7.8 µg/mL (≈ 17.6 µM)
- MIC (Raoultella planticola [16]): 7.8 µg/mL (≈ 17.6 µM)
- MBC (Raoultella planticola [17]): 7.8 µg/mL (≈ 17.6 µM)
- IC50 (Raoultella planticola [18]): 2500 nM

- IC50 (A549): 3620 nM
- IC50 (HepG2 [25]): 69800 nM
Compound: CCCCCCCCn1cc(Cn2c(C)nc3c(c2=O)C(c2ccccc2)C(C(=O)OCC)=C(C)O3)nn1 (configuration not stated)
